In article PMC8041674 (European Journal of Nuclear Medicine and Molecular Imaging, 2020):
Several values for one entry are separate records, joined by “and”; a condition that tells them apart may be missing. Identical values can stand only once. Like-named read-outs stand apart in the source and are kept apart here. Blank lines part the entries; values can stand above or below the molecule they belong to.

Experiments:
[1] = Pharmacokinetic parameters of pridopidine in plasma; details: at steady state, 0 to 12 h after oral administration of pridopidine
[2] = target: T1, sigma-1 receptor (S1R) (Homo sapiens, UniProt Q99720); test: Test-retest [^18F] fluspidine PET substudy; type: in vivo; set-up: from tissue; host or cells: living human brain of male healthy volunteers and Huntington disease patients (in vivo PET); details: two HVs, no pridopidine, VT of first and second PET scan
T1 sequence (Q99720 whole entry): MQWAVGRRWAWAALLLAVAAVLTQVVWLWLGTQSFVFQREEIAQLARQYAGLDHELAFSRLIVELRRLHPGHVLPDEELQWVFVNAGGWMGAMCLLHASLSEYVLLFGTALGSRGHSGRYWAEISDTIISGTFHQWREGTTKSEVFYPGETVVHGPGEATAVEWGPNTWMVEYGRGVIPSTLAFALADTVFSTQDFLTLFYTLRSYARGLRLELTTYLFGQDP
Method: The test-retest variability of [18F]Fluspidine binding (VT) was estimated for two HVs (age 27.5±3.5 yrs; body weight 67.0±11.3 kg) from PET data acquired at the same time point of the day within 11 and 14 weeks. No pridopidine was administered before imaging. The test-retest variability was calculated using linear regression of the first and second PET scan. Test-retest analysis was performed to calculate the uncertainty of the RO estimate. As estimated by the slope values of the linear regression, the variability was 0.887 (11.3%; subject #1) and 1.008 (0.8%; subject #2)(Supplementary Fig. S7; Supplementary

[3] = tested on: plasma proteins; test: [^18F] fluspidine binding to plasma proteins (ultracentrifugation); type: in vitro ADME; details: human, read-out: fraction of free tracer in plasma, not bound to plasma proteins
[4] = target: T1, sigma-1 receptor (S1R); test: [^18F] fluspidine distribution volume (S1R availability), one-tissue compartment model; type: in vivo; set-up: from tissue; host or cells: living human brain of male healthy volunteers and Huntington disease patients (in vivo PET); VND, non-displaceable distribution volume: unit not given here
Excerpt: Application of the linear regression

[5] = tested on: S1R; details: behaviorally effective doses, [^11C]SA4503 PET; cited from earlier work
[6] = tested on: D2/D3R; details: behaviorally effective doses, [^11C] Raclopride PET; cited from earlier work
[7] = tested on: sigma-1 receptor (S1R) compared with dopamine D3 receptor (D3R); details: in vitro and in vivo animal studies; cited from earlier work
[8] = target: T1, sigma-1 receptor (S1R); details: for mean RO (S1R): 90 mg pridopidine; for RO (%), sigma-1 receptor occupancy: PET 2 h post dose
Excerpt: This PET study consists of three PET substudies: the [^18F] fluspidine substudy (HVs, n = 11, HD, n = 3), the [^18F] fallypride substudy (HVs, n = 4), and the test-retest [^18F] fluspidine substudy (HVs, n = 2). All subjects were assigned to only one PET substudy. Subjects in the [^18F] fluspidine or [^18F] fallypride substudies were investigated twice within 4 weeks at the same time point of the day.
The doses were not established a priori but were based on the receptor occupancy results from previous cohort subjects. […] Because we observed near to complete S1R occupancy with 90 mg, we reduced the next dose to approximately one fourth. […] The total distribution volume VT of [^18F] fluspidine in the brain was computed from the corresponding TACs and the metabolite-corrected arterial input function using a one-tissue compartment model (1TCM).
The receptor occupancy (RO) is defined as the drug treatment-induced reduction of the receptor density. The values of RO are between 0 (no receptor occupancy) and 1 (100% receptor occupancy). […] Here, it is assumed that the non-displaceable distribution volume VND and the receptor occupancy RO have the same value in all brain regions. Application of the linear regression
1 VTPET1−VTPET2=ROVTPET1−VND yielded VND and RO. From the Lassen plot follows
2 RO=1−VTPET2−VND/VTPET1−VND

[9] = tested on: sigma-1 receptor (S1R) compared with D2R; details: in vitro and in vivo animal studies; cited from earlier work
[10] = target: T1, sigma-1 receptor (S1R); test: in vivo; details: for Emax: standard error in brackets
Method: Two models with Hill coefficient n fixed to 1 or optimized as a third parameter were investigated and characterized by the Akaike information criterion (AIC). Nonlinear parameter estimation was performed with Mathematica12 (Wolfram Research).

[11] = tested on: Huntington disease patients; details: HD patients, 45 mg bid, week 52, PRIDE-HD; cited from earlier work
[12] = model plasma concentration Cavg2-4h (ng/ml), three-parameter Hill equation
[13] = model plasma concentration Cavg2-4h (ng/ml), two-parameter Hill equation (n = 1)
[14] = model weight adjusted dose (mg/kg), three-parameter Hill equation
[15] = model weight adjusted dose (mg/kg), two-parameter Hill equation (n = 1)

concentration of metabolite in plasma relative to unchanged pridopidine concentration [1]: less than 10%
Structure (SMILES): CS(=O)(=O)c1cccc(C2CCNCC2)c1 [TV45065]

Structure (SMILES): FCC[C@@H]1OC2(CCN(Cc3ccccc3)CC2)c2ccccc21 [[^18F] fluspidine, (S)-(-)-[^18F] Fluspidine]
test-retest variability, slope of the linear regression [2]: 0.887 and 1.008
fraction unbound [3]: 0.023 ± 0.007
mean VT at baseline PET ([4]; HD (n = 3), cerebellum): 23.52 ± 12.66
mean VT at baseline PET ([4]; HD (n = 3), corpus callosum): 8.89 ± 2.75
mean VT at baseline PET ([4]; HD (n = 3), frontal cortex): 16.32 ± 6.76
mean VT at baseline PET ([4]; HD (n = 3), medulla): 14.75 ± 7.28
mean VT at baseline PET ([4]; HD (n = 3), midbrain): 16.46 ± 7.73
mean VT at baseline PET ([4]; HD (n = 3), pons): 16.10 ± 8.74
mean VT at baseline PET ([4]; HD (n = 3), striatum): 13.59 ± 5.98
mean VT at baseline PET ([4]; HVs (n = 11), cerebellum, mean ± SD): 26.91 ± 4.49
mean VT at baseline PET ([4]; HVs (n = 11), corpus callosum): 11.69 ± 2.40
mean VT at baseline PET ([4]; HVs (n = 11), frontal cortex): 21.38 ± 3.37
mean VT at baseline PET ([4]; HVs (n = 11), medulla): 16.63 ± 2.72
mean VT at baseline PET ([4]; HVs (n = 11), midbrain): 19.31 ± 2.70
mean VT at baseline PET ([4]; HVs (n = 11), pons): 19.13 ± 3.45
mean VT at baseline PET ([4]; HVs (n = 11), striatum): 19.43 ± 2.95
VND, non-displaceable distribution volume ([4]; Lassen plot, baseline vs post-pridopidine PET, patients with Huntington disease, individual subjects): 4.26 and 3.68 and 4.42

mean RO (S1R) ([8]; HD patients): 87.4%
RO (%), sigma-1 receptor occupancy ([8]; healthy volunteer (n = 1), single dose 0.5 mg): 17.6%
RO (%), sigma-1 receptor occupancy ([8]; healthy volunteer (n = 1), single dose 1 mg): 41.8%
RO (%), sigma-1 receptor occupancy ([8]; healthy volunteer, individual subject, single dose 45 mg): 87.2%
RO (S1R), mean ([8]; healthy volunteers, 5 mg pridopidine): 78.0 ± 1.7%
mean RO (S1R) ([8]; healthy volunteers): 91.2%
RO (%), sigma-1 receptor occupancy ([8]; healthy volunteers, individual subjects, single dose 5 mg): 76.8% and 79.2%
RO (%), sigma-1 receptor occupancy ([8]; healthy volunteers, individual subjects, single dose 22.5 mg): 84.1% and 89.2% and 86.7%
RO (%), sigma-1 receptor occupancy ([8]; healthy volunteers, individual subjects, single oral dose 90 mg): 88.8% and 89.1% and 95.7%
RO (%), sigma-1 receptor occupancy ([8]; patients with Huntington disease, individual subjects, single dose 90 mg): 80.4% and 93.2% and 88.5%
Emax ([10]; model dose (mg), three-parameter Hill equation, healthy volunteers): 0.90 (0.01)
Emax ([10]; model dose (mg), two-parameter Hill equation (n = 1), healthy volunteers): 0.93 (0.02)
EC90 [10, 12]: 0.018 µg/mL and 0.01757 µg/mL
Emax [10, 12]: 0.89 (0.02)
EC90 [10, 13]: 0.028 µg/mL and 0.02852 µg/mL
Emax [10, 13]: 0.91 (0.02)
EC90 [10, 14]: 0.084 mg/kg
Emax [10, 14]: 0.89 (0.02)
EC90 [10, 15]: 0.135 mg/kg
Emax [10, 15]: 0.93 (0.02)
Hill coefficient ([10]; three-parameter model, all situations (concentration, dose, adjusted weight dose)): > 1
Structure (SMILES): CCCN1CCC(c2cccc(S(C)(=O)=O)c2)CC1 [pridopidine]
S1R occupancy in rat brains [5]: high S1R occupancy
D2/D3R occupancy in rat brains [6]: low D2/D3R occupancy
fold higher affinity towards S1R compared with D3R [7]: ~ 30 fold
fold higher affinity towards S1R compared with D2R [9]: ~ 100 fold
decline from baseline in total functional capacity (TFC) compared with placebo [11]: significantly less decline from baseline
